Reference: patent publication US8063225B2, “Tricyclic compound derivatives useful in the treatment of neoplastic diseases, inflammatory disorders and immunomodulatory disorders” (Chembridge Corporation, priority 2006, dated 2011)

What was measured:
InsR = biological target: T1, InsR (Homo sapiens, UniProt P06213); test: Tyrosine kinase assay (Kinase-Glo or AlphaScreen), InsR; details: biochemical tyrosine kinase assay
T1 construct: 6×His- or GST-tagged kinase domain fragments of the corresponding RTKs expressed in baculovirus system; host or cells: baculovirus system
T1 sequence (P06213 1023-1298 limits assumed, species assumed): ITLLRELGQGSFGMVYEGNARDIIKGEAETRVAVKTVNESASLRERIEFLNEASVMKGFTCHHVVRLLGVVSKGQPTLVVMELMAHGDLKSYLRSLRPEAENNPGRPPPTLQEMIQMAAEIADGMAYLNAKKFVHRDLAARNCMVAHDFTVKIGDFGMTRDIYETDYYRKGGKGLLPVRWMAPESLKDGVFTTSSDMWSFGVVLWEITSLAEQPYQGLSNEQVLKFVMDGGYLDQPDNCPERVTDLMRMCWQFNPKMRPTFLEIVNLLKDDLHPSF
Outline: (§1)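 Test compounds, eight concentrations from 1 nM to 20 μM, were incubated with tagged recombinant kinase domain, poly(Glu-Tyr, 4:1) and 10 μM ATP. After 60 minutes at 37° C, Kinase-Glo luminescence quantified unconsumed ATP.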

Alk = biological target: T2, Alk (Homo sapiens, UniProt Q9UM73); test: Tyrosine kinase assay (Kinase-Glo or AlphaScreen), Alk; details: biochemical tyrosine kinase assay
T2 construct: 6×His- or GST-tagged kinase domain fragments of the corresponding RTKs expressed in baculovirus system; host or cells: baculovirus system
T2 sequence (Q9UM73 1116-1392 limits assumed, species assumed): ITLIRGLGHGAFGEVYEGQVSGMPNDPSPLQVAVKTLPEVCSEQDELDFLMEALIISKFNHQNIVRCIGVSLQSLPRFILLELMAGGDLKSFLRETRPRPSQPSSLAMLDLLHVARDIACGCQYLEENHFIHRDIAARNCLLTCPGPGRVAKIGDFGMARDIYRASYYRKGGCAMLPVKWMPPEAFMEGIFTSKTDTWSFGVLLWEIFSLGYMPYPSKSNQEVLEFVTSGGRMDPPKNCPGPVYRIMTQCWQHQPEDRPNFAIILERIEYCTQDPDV
Outline: as §1

IGF1 receptor = biological target: T3, IGF1 receptor (Homo sapiens, UniProt P08069); test: ELISA-based assay of IGF1 receptor autophosphorylation inhibition in cells; assay type: cell-based; details: IGF1R phosphorylation inhibition in MCF7 cells
T3 construct: MCF7 human breast cancer cells expressing IGF1 receptor; endogenous in cells; host or cells: MCF7 human breast cancer cells
T3 sequence (P08069 741-1367 limits assumed): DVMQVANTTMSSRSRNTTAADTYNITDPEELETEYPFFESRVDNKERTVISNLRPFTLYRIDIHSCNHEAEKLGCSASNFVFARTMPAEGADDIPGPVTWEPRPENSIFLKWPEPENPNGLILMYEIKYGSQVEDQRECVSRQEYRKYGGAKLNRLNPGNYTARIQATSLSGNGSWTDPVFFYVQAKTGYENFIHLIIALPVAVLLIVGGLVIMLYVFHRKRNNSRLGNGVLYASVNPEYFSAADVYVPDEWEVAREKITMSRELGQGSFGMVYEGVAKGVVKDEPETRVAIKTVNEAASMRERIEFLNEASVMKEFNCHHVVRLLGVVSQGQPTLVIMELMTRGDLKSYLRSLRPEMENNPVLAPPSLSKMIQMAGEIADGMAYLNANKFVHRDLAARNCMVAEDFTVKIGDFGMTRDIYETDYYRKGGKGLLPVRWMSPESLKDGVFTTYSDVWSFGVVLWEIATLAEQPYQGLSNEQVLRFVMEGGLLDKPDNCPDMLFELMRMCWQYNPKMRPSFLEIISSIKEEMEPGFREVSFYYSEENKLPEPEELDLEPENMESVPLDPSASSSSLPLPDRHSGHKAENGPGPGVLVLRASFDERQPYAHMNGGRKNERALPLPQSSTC
T3 sequence (P08069 31-736 partner limits assumed): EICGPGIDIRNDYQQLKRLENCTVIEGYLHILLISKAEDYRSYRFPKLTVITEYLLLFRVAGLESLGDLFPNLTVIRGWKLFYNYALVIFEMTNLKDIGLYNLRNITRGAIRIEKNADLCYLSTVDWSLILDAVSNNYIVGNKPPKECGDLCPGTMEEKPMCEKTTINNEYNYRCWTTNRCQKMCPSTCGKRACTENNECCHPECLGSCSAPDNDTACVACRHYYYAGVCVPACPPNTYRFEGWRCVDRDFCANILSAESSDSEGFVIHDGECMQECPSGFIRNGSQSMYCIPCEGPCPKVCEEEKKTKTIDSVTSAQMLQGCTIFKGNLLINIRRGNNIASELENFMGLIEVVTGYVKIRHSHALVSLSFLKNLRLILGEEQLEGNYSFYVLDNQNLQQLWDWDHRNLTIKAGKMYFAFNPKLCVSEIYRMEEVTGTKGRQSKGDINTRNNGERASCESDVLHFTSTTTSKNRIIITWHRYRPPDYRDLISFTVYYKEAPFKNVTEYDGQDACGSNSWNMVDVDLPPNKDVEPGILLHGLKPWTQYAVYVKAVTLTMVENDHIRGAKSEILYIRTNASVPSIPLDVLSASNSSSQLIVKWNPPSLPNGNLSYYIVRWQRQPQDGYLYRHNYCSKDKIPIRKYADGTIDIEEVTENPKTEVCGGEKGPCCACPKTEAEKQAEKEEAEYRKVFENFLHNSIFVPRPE
Procedure: In another embodiment, compounds that interact with the IGF1R kinase domain are tested in a cell-based assay system. In accordance with this embodiment, cells expressing a full-length IGF1 receptor or a fragment thereof containing the IGF1R kinase domain, are contacted with a candidate or a control compound and the ability of the compound to block tyrosine kinase activity of IGF1R within a cell is determined. This assay may be used to screen a single compound or a large library of candidate compounds. Typically, the cells or cell lines are of mammalian origin and they can express the IGF1 receptor, or functional IGF1R kinase domain fragment, endogenously or be genetically engineered to express the IGF1R, or functional fragment thereof. The ability of the candidate compound to inhibit IGF1R kinase activity can be determined by methods known to those skilled in the art. For example, the inhibition can be determined by ELISA-type assay or Western blot analysis with cell lysates or immunoprecipitated IGF1R receptor using various anti-IGF1R and anti-phosphotyrosine antibodies.
In general, cells expressing IGF1R are treated with modulators (i.e., inhibitors or activators) of IGF1R kinase activity and cell lysates are produced from these treated cells. IGF1Rs are isolated from the lysate by immunoprecipitation and analyzed for phosphotyrosine content. Alternatively, or in addition, cellular protein substrates phosphorylated by IGFR may be immunoprecipitated from the lysates and their degree of tyrosine phosphorylation determined.
MCF7 human breast cancer cells expressing IGF1 receptor or an engineered […] fibroblast cell line NIH 3T3 overexpressing full-length IGF1R are an exemplary cellular models in which to perform such assays. Such cells may be maintained in DMEM medium supplemented with 10% fetal bovine serum (FBS), 4% L-glutamine, 1% antibiotic solution (penicillin-Streptomycin) in a humidified atmosphere of 95% air and 5% CO2 at 37° C. Confluent cells in T175 cell culture flasks are incubated overnight with serum-free DMEM medium. After the serum starvation step, the cells are detached and split into a standard 96-well cell culture plate (one T175 flask per plate, 30 μl of cell suspension per plate well). Tested inhibitors from their 10 mM stock solutions in DMSO are subsequently added at various concentrations in serum-free DMEM medium for 1 hour incubation at 37° C. in CO2-incubator; total DMSO concentration in both treated and control wells is adjusted to 1%. Cells are then stimulated for 10 minutes with 100 nM IGF-1 added in 30 μl DMEM. After treatment, cells are lysed by addition of 30 μl of 4× lysis buffer (phosphate-buffered saline (PBS), 2% Triton-X100, 1 mM phenylmethylsulphonyl fluoride (PMSF) and 8 mM activated orthovanadate), mixing and incubation for 15 minute at room temperature. To prepare assay plates, 96-well ELISA Plates (Pierce Chemical, Reacti-bind plates) were coated by goat-anti-rabbit Fc antiserum by adding 0.25 μg antiserum per well in 0.2M sodium bicarbonate buffer per well and incubating overnight at 4° C. After incubation, the plate is washed three times by PBS with 0.02% Tween-20, supplied with 25 ng/50 μl per well of anti-IGF1R antibody (C-20, Santa Cruz Biotechnology) and incubated for several hours to overnight. Prior to the addition of the prepared cellular lysates, the antibody solution is aspirated, wells washed with PBS and supplied with 25 μl per well of Starting Block buffer (Pierce Chemical).
To measure tyrosine phosphorylation of the beta-subunits of the IGF1R, 25-50 μl of the lysates are transferred from the stimulation plate to the wells of the prepared assay plate and incubated overnight at 4° C. The wells are washed with PBS with 0.02% Tween-20, incubated with 50 μl of 1:3000 dilution of anti-phosphotyrosine 4G10-HRP antibody conjugate (Upstate Biotechnology) for 2 hours at room temperature and washed again. […]

IC50 (InsR) [µM]	IC50 (Alk) [µM]	IC50 (IGF1 receptor) [µM]	SMILES
< 0.5	> 15	0.5 to 5	COc1ccc(OC[C@H](O)CNc2cc[nH]c(=O)c2-c2nc3cc4c(cc3[nH]2)C(=O)N(C2CCN(C)CC2)C4=O)c(OC)c1OC [compound 93]
< 0.5	0.5 to 5	5 to 15	Cc1cc(C)c(OC[C@H](O)CNc2cc[nH]c(=O)c2-c2nc3cc4c(cc3[nH]2)C(=O)N(C2CCN(C)CC2)C4=O)c(C)c1 [compound 98]
0.5 to 5	> 15	5 to 15	C[C@H](O)CN1C(=O)c2cc3nc(-c4c(NC[C@@H](O)c5cccc(Cl)c5)cc[nH]c4=O)[nH]c3cc2C1=O [compound 31]
0.5 to 5	0.5 to 5	> 15	Cc1ccc(Cl)c(C)c1OC[C@H](O)CNc1cc[nH]c(=O)c1-c1nc2cc3c(cc2[nH]1)C(=O)N(C1CCN(C)CC1)C3=O [compound 111]
5 to 15	5 to 15	> 15	O=C1c2cc3nc(-c4c(NC[C@@H](O)c5cccc(Cl)c5)cc[nH]c4=O)[nH]c3cc2C(=O)N1CCc1ccncc1 [compound 28]
< 0.5	5 to 15	5 to 15	Cc1ccc(OCC(O)CNc2cc[nH]c(=O)c2-c2nc3cc4c(cc3[nH]2)C(=O)N(CC2CCN(CCO)CC2)C4=O)c(C)c1 (stereo not drawn) [compound 37]
< 0.5	> 15	5 to 15	CN1CCC(N2C(=O)c3cc4nc(-c5c(NC[C@@H](O)COc6cccc(Cl)c6F)cc[nH]c5=O)[nH]c4cc3C2=O)CC1 [compound 96]
< 0.5	0.5 to 5	0.5 to 5	Cc1c(Cl)cccc1OC[C@H](O)CNc1cc[nH]c(=O)c1-c1nc2cc3c(cc2[nH]1)C(=O)N(C1CCN(C)CC1)C3=O [compound 94]
> 15	> 15	> 15	O=C1c2cc3nc(-c4c(NC[C@@H](O)c5cccc(Cl)c5)cc[nH]c4=O)[nH]c3cc2C(=O)N1C[C@@H]1CCCO1 [compound 29]
< 0.5	0.5 to 5	< 0.5	CN1CCC(N2C(=O)c3cc4nc(-c5c(NC[C@@H](O)c6cccc(Cl)c6)cc[nH]c5=O)[nH]c4cc3C2=O)CC1 [compound 1]
0.5 to 5	< 0.5	< 0.5	CCN1CCC(N2C(=O)c3cc4nc(-c5c(NC[C@@H](O)COc6ccc(C)cc6C)cc[nH]c5=O)[nH]c4cc3C2=O)CC1 [compound 143]
< 0.5	0.5 to 5	< 0.5	Cc1ccc(OC[C@H](O)CNc2cc[nH]c(=O)c2-c2nc3cc4c(cc3[nH]2)C(=O)N(C2CCNCC2)C4=O)c(C)c1 [compound 142]
0.5 to 5	0.5 to 5	0.5 to 5	CN1CCC(N2C(=O)c3cc4nc(-c5c(NC[C@@H](O)COc6cccc(OC(F)(F)C(F)F)c6)cc[nH]c5=O)[nH]c4cc3C2=O)CC1 [compound 91]
0.5 to 5	5 to 15	0.5 to 5	CN1CCC(N2C(=O)c3cc4nc(-c5c(NC[C@@H](O)COc6cccc(C(F)(F)F)c6)cc[nH]c5=O)[nH]c4cc3C2=O)CC1 [compound 97]
< 0.5	0.5 to 5	0.5 to 5	Cc1ccc(OC[C@H](O)CNc2cc[nH]c(=O)c2-c2nc3cc4c(cc3[nH]2)CN(C2CCN(C)CC2)C4=O)c(C)c1 [compound 130]
< 0.5	0.5 to 5	5 to 15	Cc1ccc(OC[C@@H](O)CNc2cc[nH]c(=O)c2-c2nc3cc4c(cc3[nH]2)C(=O)N([C@@H]2CCN(C)C2)C4=O)c(C)c1 [compound 107]

IC50 (InsR) [µM]	IC50 (Alk) [µM]	IC50 (IGF1 receptor) [µM]	SMILES
5 to 15	> 15	5 to 15	CC(C)(CO)CN1C(=O)c2cc3nc(-c4c(NC[C@@H](O)c5cccc(Cl)c5)cc[nH]c4=O)[nH]c3cc2C1=O [compound 26]
0.5 to 5	5 to 15	> 15	Cc1ccc(OC[C@H](O)CNc2cc[nH]c(=O)c2-c2nc3cc4c(cc3[nH]2)C(=O)N(C2CCN(C)CC2)C4=O)cc1Cl [compound 99]
< 0.5	0.5 to 5	5 to 15	Cc1ccc(OC[C@@H](O)CNc2cc[nH]c(=O)c2-c2nc3cc4c(cc3[nH]2)C(=O)N([C@H]2CCN(C)C2)C4=O)c(C)c1 [compound 106]
0.5 to 5	5 to 15	0.5 to 5	Cc1ccc2c(ccn2C[C@H](O)CNc2cc[nH]c(=O)c2-c2nc3cc4c(cc3[nH]2)C(=O)N(C2CCN(C)CC2)C4=O)c1 [compound 131]
0.5 to 5	0.5 to 5	5 to 15	Cc1cc(C)c(OC[C@H](O)CNc2cc[nH]c(=O)c2-c2nc3cc4c(cc3[nH]2)C(=O)N(C2CCN(C)CC2)C4=O)cc1Cl [compound 108]
< 0.5	0.5 to 5	0.5 to 5	CN1CCC(N2C(=O)c3cc4nc(-c5c(NC[C@@H](O)COc6cccc7ccccc67)cc[nH]c5=O)[nH]c4cc3C2=O)CC1 [compound 87]
> 15	> 15	> 15	CN1CCC(N2C(=O)c3cc4nc(-c5c(N[C@H](CO)Cc6c[nH]cn6)cc[nH]c5=O)[nH]c4cc3C2=O)CC1 [compound 2]
< 0.5	0.5 to 5	0.5 to 5	CCc1cc(C)ccc1OC[C@H](O)CNc1cc[nH]c(=O)c1-c1nc2cc3c(cc2[nH]1)CN(C1CCN(C)CC1)C3=O [compound 141]
< 0.5	5 to 15	0.5 to 5	Cc1ccc(OCC(O)CNc2cc[nH]c(=O)c2-c2nc3cc4c(cc3[nH]2)C(=O)N(C2CCN(C)CC2)C4=O)c(C)c1 (stereo not drawn) [compound 15]
< 0.5	0.5 to 5	0.5 to 5	Cc1ccc(OC[C@H](O)CNc2cc[nH]c(=O)c2-c2nc3cc4c(cc3[nH]2)C(=O)N(C2CCN(C)CC2)C4=O)c(C)c1 [compound 59]
0.5 to 5	5 to 15	> 15	Cc1ccc(OC[C@@H](O)CNc2cc[nH]c(=O)c2-c2nc3cc4c(cc3[nH]2)C(=O)N(C2CCN(C)CC2)C4=O)c(C)c1 [compound 64]
< 0.5	0.5 to 5	0.5 to 5	Cc1ccc(OC[C@H](O)CNc2cc[nH]c(=O)c2-c2nc3c(C)c4c(cc3[nH]2)CN(C2CCN(C)CC2)C4=O)c(C)c1 [compound 140]
5 to 15	> 15	0.5 to 5	Cc1cc(C)n(C[C@H](O)CNc2cc[nH]c(=O)c2-c2nc3cc4c(cc3[nH]2)C(=O)N(C2CCN(C)CC2)C4=O)n1 [compound 92]
0.5 to 5	0.5 to 5	0.5 to 5	COc1cccc(OCC(O)CNc2cc[nH]c(=O)c2-c2nc3cc4c(cc3[nH]2)C(=O)N(C2CCN(C)CC2)C4=O)c1 (stereo not drawn) [compound 6]
0.5 to 5	< 0.5	0.5 to 5	CCN1CCC(N2Cc3cc4nc(-c5c(NC[C@@H](O)COc6ccc(C)cc6C)cc[nH]c5=O)[nH]c4cc3C2=O)CC1 [compound 144]

SMILES	IC50 (InsR) [µM]	IC50 (Alk) [µM]	IC50 (IGF1 receptor) [µM]
O=C1c2cc3nc(-c4c(NC[C@@H](O)c5cccc(Cl)c5)cc[nH]c4=O)[nH]c3cc2C(=O)N1[C@@H]1CN2CCC1CC2 [compound 33]	< 0.5	0.5 to 5	> 15
O=C1c2cc3nc(-c4c(NC[C@@H](O)c5cccc(Cl)c5)cc[nH]c4=O)[nH]c3cc2C(=O)N1[C@H]1CN2CCC1CC2 [compound 34]	0.5 to 5	0.5 to 5	> 15
